# Experimental data: ChEMBL document CHEMBL4400538, “Discovery of Carboline Derivatives as Potent Antifungal Agents for the Treatment of Cryptococcal Meningitis” (J Med Chem, 2019)
# The source made the active and inactive calls. No cut-off for these calls is given here.
# Legend:
# [1] = tested on: Cryptococcus gattii; test: Antifungal activity against Cryptococcus gattii ATCC 14116 after 72 hrs by spectrophotometery; conditions: ATCC 14116, 72 h
# [2] = tested on: Cryptococcus neoformans; test: Induction of up-regulation of DNA polymerase alpha2 gene expression in Cryptococcus neoformans H99 at 2 ug/ml after 24 hrs by RNA-seq analysis based KEGG pathway enrichment analysis; assay type: functional, organism-based; conditions: var grubii H99
# [3] = tested on: Nakaseomyces glabratus; test: Antifungal activity against Candida glabrata 8535 after 48 hrs by spectrophotometery; assay type: functional; conditions: Nakaseomyces glabratus, 8535, 48 h
# [4] = tested on: Cryptococcus neoformans; test: Antifungal activity against Cryptococcus neoformans H99 assessed as induction of gamma-H2AX foci at 2 ug/ml after 48 hrs by Hoechst-33342 staining based fluorescence microscopy; assay type: functional, organism-based; conditions: var grubii H99
# [5] = tested on: Cryptococcus neoformans; test: Induction of up-regulation of Mob1 gene expression in Cryptococcus neoformans H99 at 2 ug/ml after 24 hrs by RNA-seq analysis based KEGG pathway enrichment analysis; assay type: functional, organism-based; conditions: var grubii H99
# [6] = Clearance in ICR mouse liver microsomes at 1 uM measured up to 45 mins in presence of NADPH by LC-MS/MS analysis; assay type: ADME, Microsome; conditions: 0.75 h
# [7] = tested on: Trichophyton rubrum; test: Antifungal activity against Trichophyton rubrum TIA after 48 hrs by spectrophotometery; assay type: functional
# [8] = tested on: Cryptococcus neoformans; test: Antifungal activity against Cryptococcus neoformans H99 assessed as cell wall collapse at 4 ug/ml after 24 hrs by TEM analysis; assay type: functional, organism-based; conditions: var grubii H99
# [9] = tested on: Cryptococcus neoformans; test: Induction of up-regulation of Lig1 gene expression in Cryptococcus neoformans H99 at 2 ug/ml after 24 hrs by RNA-seq analysis based KEGG pathway enrichment analysis; assay type: functional, organism-based; conditions: var grubii H99
# [10] = tested on: Cryptococcus neoformans; test: Antifungal activity against Cryptococcus neoformans H99 assessed as inhibition of microbial growth at 8 ug/ml after 12 to 48 hrs by growth curve assay; assay type: functional; conditions: var grubii H99, read-out: GI
# [11] = tested on: Cryptococcus neoformans; test: Antifungal activity against Cryptococcus neoformans ATCC 34877 after 72 hrs by spectrophotometery; assay type: functional; conditions: ATCC 34877, 72 h
# [12] = tested on: Cryptococcus neoformans; test: Antibiofilm activity against Cryptococcus neoformans H99 assessed as inhibition of cellular surface hydrophobicity at 5 ug/ml incubated for 24 hrs by water-hydrocarbon two-phase assay; assay type: functional, organism-based; conditions: var grubii H99
# [13] = tested on: Cryptococcus neoformans; test: Antifungal activity against Cryptococcus neoformans H99 assessed as formation of abnormally shaped cells at 4 ug/ml after 24 hrs by TEM analysis; assay type: functional, organism-based; conditions: var grubii H99
# [14] = tested on: HUVEC; test: Cytotoxicity against human HUVEC; assay type: cell-based
# [15] = tested on: Candida albicans; test: Antifungal activity against Candida albicans 0304103 after 48 hrs by spectrophotometery; assay type: functional; conditions: Candida albicans, 0304103, 48 h
# [16] = tested on: Cryptococcus neoformans; test: Induction of cell cycle arrest in Cryptococcus neoformans H99 assessed as accumulation at G2 phase at 1 to 2 ug/ml after 24 hrs by propidium iodide-staining based FACS analysis (reference value: 3.86%); assay type: functional, var grubii H99
# [17] = tested on: Cryptococcus neoformans; test: Induction of up-regulation of PLK1 gene expression in Cryptococcus neoformans H99 at 2 ug/ml after 24 hrs by RNA-seq analysis based KEGG pathway enrichment analysis; assay type: functional, organism-based; conditions: var grubii H99
# [18] = tested on: Cryptococcus neoformans; test: Induction of up-regulation of ORC gene expression in Cryptococcus neoformans H99 at 2 ug/ml after 24 hrs by RNA-seq analysis based KEGG pathway enrichment analysis; assay type: functional, organism-based; conditions: var grubii H99
# [19] = tested on: Cryptococcus neoformans; test: Induction of up-regulation of MCM gene expression in Cryptococcus neoformans H99 at 2 ug/ml after 24 hrs by RNA-seq analysis based KEGG pathway enrichment analysis; assay type: functional, organism-based; conditions: var grubii H99
# [20] = tested on: Cryptococcus neoformans; test: Induction of up-regulation of Ycg1 gene expression in Cryptococcus neoformans H99 at 2 ug/ml after 24 hrs by RNA-seq analysis based KEGG pathway enrichment analysis; assay type: functional, organism-based; conditions: var grubii H99
# [21] = tested on: Cryptococcus neoformans; test: Induction of cell cycle arrest in Cryptococcus neoformans H99 assessed as accumulation at S phase at 1 to 2 ug/ml after 24 hrs by propidium iodide-staining based FACS analysis (reference value: 51.64%); assay type: functional, var grubii H99
# [22] = tested on: Cryptococcus neoformans; test: Inhibition of urease production in Cryptococcus neoformans H99 at 10 ug/ml; assay type: functional, organism-based; conditions: var grubii H99
# [23] = tested on: Cryptococcus neoformans; test: Antifungal activity against Cryptococcus neoformans H99 infected in ICR mouse assessed as reduction in brain fungal load at 20 mg/kg, po administered daily for 5 days; assay type: functional, organism-based; conditions: var grubii H99
# [24] = tested on: Cryptococcus neoformans; test: Antifungal activity against Cryptococcus neoformans H99 assessed as up-regulation of Cdc25C expression after 24 hrs by Western blot analysis; assay type: functional, organism-based; conditions: var grubii H99
# [25] = tested on: Cryptococcus neoformans; test: Induction of up-regulation of PCNA gene expression in Cryptococcus neoformans H99 at 2 ug/ml after 24 hrs by RNA-seq analysis based KEGG pathway enrichment analysis; assay type: functional, organism-based; conditions: var grubii H99
# [26] = Effective permeability of the compound after 12 hrs by PAMPA; assay type: ADME; conditions: read-out: Peff
# [27] = Half life in ICR mouse liver microsomes at 1 uM measured up to 45 mins in presence of NADPH by LC-MS/MS analysis; assay type: ADME, Microsome
# [28] = tested on: Cryptococcus neoformans; test: Antifungal activity against Cryptococcus neoformans H99 assessed as nuclear pyknosis at 4 ug/ml after 24 hrs by TEM analysis; assay type: functional, organism-based; conditions: var grubii H99
# [29] = tested on: Candida albicans; test: Antifungal activity against Candida albicans 7781 after 48 hrs by spectrophotometery; assay type: functional; conditions: Candida albicans, 7781, 48 h
# [30] = tested on: Cryptococcus neoformans; test: Antifungal activity against Cryptococcus neoformans H99 after 48 hrs by growth curve assay; assay type: functional
# [31] = tested on: Cryptococcus neoformans; test: Induction of up-regulation of Hs17 gene expression in Cryptococcus neoformans H99 at 2 ug/ml after 24 hrs by RNA-seq analysis based KEGG pathway enrichment analysis; assay type: functional, organism-based; conditions: var grubii H99
# [32] = tested on: Nannizzia gypsea; test: Antifungal activity against Microsporum gypseum MZC after 48 hrs by spectrophotometery; assay type: functional
# [33] = Protein binding in mouse plasma; assay type: ADME, cell-free
# [34] = tested on: Cryptococcus neoformans; test: Induction of up-regulation of PNAC gene expression in Cryptococcus neoformans H99 at 2 ug/ml after 24 hrs by RNA-seq analysis based KEGG pathway enrichment analysis; assay type: functional, organism-based; conditions: var grubii H99
# [35] = tested on: Cryptococcus neoformans; test: Antifungal activity against Cryptococcus neoformans H99 assessed as up-regulation of cyclin B1 expression after 24 hrs by Western blot analysis; assay type: functional, organism-based; conditions: var grubii H99
# [36] = tested on: Cryptococcus neoformans; test: Induction of cell cycle arrest in Cryptococcus neoformans H99 assessed as accumulation at G1 phase at 1 to 2 ug/ml after 24 hrs by propidium iodide-staining based FACS analysis (reference value: 44.50%); assay type: functional, var grubii H99
# [37] = tested on: Cryptococcus neoformans; test: Antibiofilm activity against Cryptococcus neoformans H99 at 16 ug/ml after 90 mins by XTT assay; assay type: functional, organism-based; conditions: var grubii H99
# [38] = tested on: Cryptococcus neoformans; test: Antifungal activity against Cryptococcus neoformans H99 after 72 hrs by growth curve assay; assay type: functional; conditions: var grubii H99 
# [39] = tested on: Candida parapsilosis; test: Antifungal activity against Candida parapsilosis 5008 after 48 hrs by spectrophotometery; assay type: functional; conditions: Lodderomyces parapsilosis, 5008, 48 h
# [40] = Solubility of the compound; assay type: physicochemical
# [41] = tested on: Cryptococcus neoformans; test: Induction of up-regulation of Mps1 gene expression in Cryptococcus neoformans H99 at 2 ug/ml after 24 hrs by RNA-seq analysis based KEGG pathway enrichment analysis; assay type: functional, organism-based; conditions: var grubii H99
# [42] = tested on: Cryptococcus neoformans; test: Antifungal activity against Cryptococcus neoformans H99 assessed as up-regulation of CDK1 expression after 24 hrs by Western blot analysis; assay type: functional, organism-based; conditions: var grubii H99
# [43] = tested on: Cryptococcus neoformans; test: Inhibition of melanin production in Cryptococcus neoformans H99 at 2.5 ug/ml; assay type: functional, organism-based; conditions: var grubii H99
# [44] = tested on: Aspergillus fumigatus; test: Antifungal activity against Aspergillus fumigatus 7544 after 48 hrs by spectrophotometery; assay type: functional; conditions: Aspergillus fumigatus, 7544, 48 h
# [45] = tested on: Cryptococcus neoformans; test: Antifungal activity against Cryptococcus neoformans H99 infected in ICR mouse assessed as reduction in brain fungal load at 10 mg/kg, ip administered once daily; assay type: functional, organism-based; conditions: var grubii H99
# [46] = tested on: Cryptococcus neoformans; test: Induction of up-regulation of APC/C gene expression in Cryptococcus neoformans H99 at 2 ug/ml after 24 hrs by RNA-seq analysis based KEGG pathway enrichment analysis; assay type: functional, organism-based; conditions: var grubii H99
smiles,measurement,setting,value
Clc1ccc(OCCCn2c3c(c4cc(Cl)ccc42)CCNC3)cc1.O=C(O)C(F)(F)F,MIC80,[1],1 µg/mL
same,Activity,[2],Active
same,MIC80,[3],1 µg/mL
same,Activity,[4],Active
same,Activity,[5],Active
same,scaled CLint,[6],78 mL/min/kg
same,MIC80,[7],4 µg/mL
same,Activity,[8],Active
same,Activity,[9],Active
same,inhibition of growth at 8 µg/mL,[10],100%
same,MIC80,[11],0.5 µg/mL
same,Activity,[12],Active
same,Activity,[13],Active
same,Activity,[14],Non-Toxic
same,MIC80,[15],2 µg/mL
same,Activity,[16],10.34%
same,Activity,[17],Active
same,Activity,[18],Active
same,Activity,[19],Active
same,Activity,[20],Active
same,Activity,[21],53.21%
same,inhibition,[22],inactive
same,Activity,[23],Active
same,Activity,[24],Dose-dependent effect
same,Activity,[25],Active
same,Papp at 12 h,[26],1.8 ×10⁻⁶ cm/s
same,half-life at 1 µM,[27],1.17 h
same,Activity,[28],Active
same,MIC80,[29],4 µg/mL
same,Activity,[30]; var grubii H99,Dose-dependent effect
same,MIC80,[30]; var grubii H99 ,0.25 µg/mL
same,Activity,[31],Active
same,MIC80,[32],8 µg/mL
same,PPB,[33],Active
same,Activity,[34],Active
same,Activity,[35],Dose-dependent effect
same,Activity,[36],36.45%
same,Activity,[37],Active
same,MIC80,[38],0.5 µg/mL
same,MIC80,[39],2 µg/mL
same,solubility,[40],54.6 µg/mL
same,Activity,[41],Active
same,Activity,[42],Dose-dependent effect
same,inhibition,[43],Active
same,MIC80,[44],16 µg/mL
same,Activity,[45],Active
same,Activity,[46],Active
